# What was measured:
# [1] = test system: soybean; assay: Postemergent control of plant species; format: in vivo, Glycine max.; details: Glycine max, post-emergence, 336 h, read-out: percent postemergent control
# Procedure, shortened: (§1)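 Compounds in acetone mixed 1:1 with water containing 0.1% surfactant, sprayed postemergence on greenhouse plants at the 2-4 leaf stage. Growth reduction versus untreated plants of the same species scored after about two weeks.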
# [2] = test system: sorghum; assay: Postemergent control of plant species; format: in vivo, Sorghum vulgare; details: Sorghum, post-emergence, 336 h, read-out: percent postemergent control
# Procedure, shortened: as §1
# [3] = test system: cocklebur; assay: Postemergent control of plant species; format: in vivo, Xanthium spp.; details: Xanthium strumarium, post-emergence, 336 h, read-out: percent postemergent control
# Procedure, shortened: as §1
# [4] = test system: wheat; assay: Postemergent control of plant species; format: in vivo, Triticum aestivum; details: Triticum aestivum, post-emergence, 336 h, read-out: percent postemergent control
# Procedure, shortened: as §1
# [5] = test system: jimsonweed; assay: Postemergent control of plant species; format: in vivo, Datura stramonium; details: Datura stramonium, post-emergence, 336 h, read-out: percent postemergent control
# Procedure, shortened: as §1
# [6] = test system: crabgrass; assay: Postemergent control of plant species; format: in vivo, Digitaria spp.; details: Digitaria sanguinalis, post-emergence, 336 h, read-out: percent postemergent control
# Procedure, shortened: as §1
# [7] = test system: sugar beet; assay: Postemergent control of plant species; format: in vivo, Beta saccharifera; details: Beta vulgaris, post-emergence, 336 h, read-out: percent postemergent control
# Procedure, shortened: as §1
# [8] = test system: nitrification of ammonium nitrogen; assay: Suppression of nitrification of ammonium nitrogen in soil; details: 27° C.
# Procedure, shortened: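 Soil (20 g) moistened to its 1/3 bar tension value, mixed with test chemical and incubated sealed for two weeks at 27° C. Nitrate extracted with ammonium sulfate solution and measured by nitrate-specific ion electrode; value given as % NH4-N remaining.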
# [9] = test system: barnyardgrass; assay: Postemergent control of plant species; format: in vivo, Echinochloa crusgalli; details: Echinochloa crus-galli, post-emergence, 336 h, read-out: percent postemergent control
# Procedure, shortened: as §1
# [10] = test system: johnson grass; assay: Postemergent control of plant species; format: in vivo, Sorghum halepense; details: Sorghum halepense, post-emergence, 336 h, read-out: percent postemergent control
# Procedure, shortened: as §1
# [11] = test system: velvetleaf; assay: Postemergent control of plant species; format: in vivo, Abutilon theophrasti; details: Abutilon theophrasti, post-emergence, 336 h, read-out: percent postemergent control
# Procedure, shortened: as §1
# [12] = test system: annual morning glory; assay: Postemergent control of plant species; format: in vivo, Ipomoea spp.; details: Ipomoea, post-emergence, 336 h, read-out: percent postemergent control
# Procedure, shortened: as §1
# [13] = test system: cotton; assay: Postemergent control of plant species; format: in vivo, Gossypium spp.; details: Gossypium hirsutum, post-emergence, 336 h, read-out: percent postemergent control
# Procedure, shortened: as §1
# [14] = test system: yellow nutsedge; assay: Postemergent control of plant species; format: in vivo, Cyperus esculentus; details: Cyperus, post-emergence, 336 h, read-out: percent postemergent control
# Procedure, shortened: as §1
# [15] = test system: rape; assay: Postemergent control of plant species; format: in vivo, Brassica napus; details: Brassica napus, post-emergence, 336 h, read-out: percent postemergent control
# Procedure, shortened: as §1
# [16] = test system: yellow foxtail; assay: Postemergent control of plant species; format: in vivo, Setaria lutescens; details: Setaria, post-emergence, 336 h, read-out: percent postemergent control
# Procedure, shortened: as §1
# [17] = test system: annual sugar beet variety (SLC03); assay: Plant growth regulator activity, postemergence; format: in vivo; details: for minimal effective concentration: Beta vulgaris, post-emergence, 672 h, 4 weeks after spraying, read-out: Bolting Inhibition (postemergence), concentration with observed effect
# From the text: (§2) Using a regular biennial variety, even a bolting-susceptible variety would require a cold treatment of around 10-16 weeks plus a hormone treatement in conjunction with specific light intensities. Thus, for a screening organism, we selected one which would consistently produce bolting on a regular schedule. The screen is run with an annual sugar beet variety (SLC03) provided by Dr. Richard J. Hecker, Fort Collins, Colo. This variety is an inbred which bolts in the 6- to 8-leaf stage without any need for vernalization. This allows the screen to be run entirely in the greenhouse with all 110 chemical compounds tested on one tray. The sugarbeets are grown in 3×3 inch square pots in a greenhouse sandy loam potting mix. The sugarbeets are sprayed with test compounds when they are 2 to 3 weeks old (2 true leaves). The compounds are dissolved in acetone and diluted with water containing Tween 20 as a wetting agent. The concentration of acetone in the final spray is 20% and the concentration of Tween 20 is 0.05 percent. The plants are examined for the appearance of a bolt 4 weeks after spraying.
# [18] = test system: wild oats; assay: Postemergent control of plant species; format: in vivo, Avena fatua; details: Avena fatua, post-emergence, 336 h, read-out: percent postemergent control
# Procedure, shortened: as §1
# [19] = test system: pigweed; assay: Postemergent control of plant species; format: in vivo, Amaranthus spp.; details: Amaranthus retroflexus, post-emergence, 336 h, read-out: percent postemergent control
# Procedure, shortened: as §1
# [20] = test system: rice; assay: Postemergent control of plant species; format: in vivo, Oryza sativa; details: Oryza sativa, post-emergence, 336 h, read-out: percent postemergent control
# Procedure, shortened: as §1
# [21] = test system: corn; assay: Postemergent control of plant species; format: in vivo, Zea mays; details: Zea mays, post-emergence, 336 h, read-out: percent postemergent control
# Procedure, shortened: as §1
# [22] = test system: annual sugar beet variety (SLC03); assay: Plant growth regulator activity, preemergence; format: in vivo; details: Beta vulgaris, pre-emergence; 6-7 weeks; read-out: Bolting Inhibition (preemergence), concentration with observed effect
# From the text: as §2
# Preemergence tests are conducted by spraying formulated chemical on seeds placed on potting soil. The sprayed seeds are then covered with 1/4 inch of potting soil and the pots are watered. Bolting is evaluated 6-7 weeks after the initiation of the test. At this time untreated plants have a vigorous bolting stem with visible flowers.
compound,measurement,setting,value
Cc1cccc(Cl)c1NS(=O)(=O)c1nc2ncc(Cl)cn2n1 [Compound 119],plant injury at 500 ppm,[1],0%
same,plant injury at 500 ppm,[2],0%
same,pest or weed control at 500 ppm,[3],70%
same,plant injury at 500 ppm,[4],0%
same,pest or weed control at 500 ppm,[5],90%
same,pest or weed control at 500 ppm,[6],0%
same,plant injury at 500 ppm,[7],50%
same,% NH4-N Remaining After 2 Weeks Incubation,[8]; 0.06 ppm,23%
same,% NH4-N Remaining After 2 Weeks Incubation,[8]; 0.25 ppm,33%
same,% NH4-N Remaining After 2 Weeks Incubation,[8]; 1 ppm,69%
same,% NH4-N Remaining After 2 Weeks Incubation,[8]; 4 ppm,88%
same,pest or weed control at 500 ppm,[9],0%
same,pest or weed control at 500 ppm,[10],80%
same,pest or weed control at 500 ppm,[11],70%
same,pest or weed control at 500 ppm,[12],30%
same,plant injury at 500 ppm,[13],0%
same,pest or weed control at 500 ppm,[14],40%
same,plant injury at 500 ppm,[15],100%
same,pest or weed control at 500 ppm,[16],0%
same,observed effect (postemergence),[17]; 400 ppm,stunting
same,minimal effective concentration,[17],400 µg/mL
same,pest or weed control at 500 ppm,[18],0%
same,pest or weed control at 500 ppm,[19],0%
same,plant injury at 500 ppm,[20],0%
same,plant injury at 500 ppm,[21],30%
Cc1ccccc1NS(=O)(=O)c1nc2ncc(Cl)cn2n1 [Compound 129],minimal effective concentration,[17],400 µg/mL
same,minimal effective concentration,[22],400 µg/mL

# — patent US4740233A, “Substituted 1,2,4-triazolo[1,5-a]-pyrimidine-2-sulfonamides and compositions and methods of controlling undesired vegetation and suppressing the nitrification of ammonium nitrogen in soil” (The Dow Chemical Company, priority 1986, dated 1988)
